# Results from ChEMBL document CHEMBL1124133, “Synthesis and hypolipidemic activity of 2-substituted isobutyric acid derivatives” (1988).
# Experiments:
# Assay type in all cases: functional
# Settings in all cases: route oral
# Rattus norvegicus [1] = test: Hypolipidemic effects of compound on rat plasma high density lipoprotein cholesterol (HDLC) level after peroral administration at 100 mg/kg dose
# Rattus norvegicus [2] = test: Hypolipidemic effect on rat plasma Total cholesterol (TC) level by peroral administration at 100 mg/kg dose
# Rattus norvegicus [3] = test: Hypolipidemic effects in rat fed a high cholesterol diet (HC) by peroral administration at 100 mg/kg dose.(increase in liver weight with respect to body weight mg/g)
# Rattus norvegicus [4] = test: Hypolipidemic effects of compound on rat plasma Triglyceride (TG) level after peroral administration at 100 mg/kg dose
# Rattus norvegicus [5] = test: Hypolipidemic effects in rat fed a normal diet by peroral administration at 100 mg/kg dose.(increase in liver weight with respect to body weight mg/g)
# Rattus norvegicus [6] = test: Hypolipidemic effects of compound on rat plasma Triglyceride (TG) level after by peroral administration at 100 mg/kg dose
# Rattus norvegicus [7] = test: Hypolipidemic effects in rat plasma high density lipoprotein cholesterol (HDLC) by peroral administration at 100 mg/kg dose
# Rattus norvegicus [8] = test: Hypolipidemic effect in rat plasma Total cholesterol (TC) by peroral administration at 100 mg/kg dose
# Rattus norvegicus [9] = test: Hypolipidemic effects in rat fed a high cholesterol diet (HC) by peroral administration at 100 mg/kg dose.
# Rattus norvegicus [10] = test: Hypolipidemic effects in rat plasma Triglyceride (TG) by peroral administration at 100 mg/kg dose
# Rattus norvegicus [11] = test: Hypolipidemic effects in rat fed a normal diet by peroral administration at 100 mg/kg dose.
# Rattus norvegicus [12] = test: Hypolipidemic effects in rat fed a normal diet by peroral administration at 100 mg/kg dose(increase in liver weight with respect to body weight mg/g)
# Rattus norvegicus [13] = test: Hypolipidemic effects in rat fed a high cholesterol diet (HC) by peroral administration at 100 mg/kg dose. (increase in liver weight with respect to body weight mg/g)
# Rattus norvegicus [14] = test: Hypolipidemic effects in rat fed a high cholesterol diet (HC) by peroral administration at 100 mg/kg dose(increase in liver weight with respect to body weight mg/g)
# Rattus norvegicus [15] = test: Hypolipidemic effects in rat fed a high cholesterol diet (HC) by peroral administration at 100 mg/kg dose (increase in liver weight with respect to body weight mg/g)
# Rattus norvegicus [16] = test: Hypolipidemic effects of compound on rat plasma high density lipoprotein cholesterol (HDLC) level after peroral administration at 100 mg/kg dose (Experiment 1)
# Rattus norvegicus [17] = test: Hypolipidemic effect on rat plasma Total cholesterol (TC) level by peroral administration at 100 mg/kg dose (Experiment 1)
# Rattus norvegicus [18] = test: Hypolipidemic effect on rat plasma Total cholesterol (TC) level by peroral administration at 100 mg/kg dose (Experiment 2)
# Rattus norvegicus [19] = test: Hypolipidemic effects in rat fed a high cholesterol diet (HC) by peroral administration at 100 mg/kg dose.(increase in liver weight with respect to body weight mg/g); (Experiment 1)
# Rattus norvegicus [20] = test: Hypolipidemic effects in rat fed a high cholesterol diet (HC) by peroral administration at 100 mg/kg dose.(increase in liver weight with respect to body weight mg/g); (Experiment 2)
# Rattus norvegicus [21] = test: Hypolipidemic effects in rat fed a normal diet by peroral administration at 100 mg/kg dose.(increase in liver weight with respect to body weight mg/g); (Experiment 1)
# Rattus norvegicus [22] = test: Hypolipidemic effects in rat fed a normal diet by peroral administration at 100 mg/kg dose.(increase in liver weight with respect to body weight mg/g); (Experiment 2)
# Rattus norvegicus [23] = test: Hypolipidemic effects of compound on rat plasma Triglyceride (TG) level after peroral administration at 100 mg/kg dose (Experiment 1)
# Rattus norvegicus [24] = test: Hypolipidemic effects of compound on rat plasma Triglyceride (TG) level after peroral administration at 100 mg/kg dose (Experiment 2)
# Rattus norvegicus [25] = test: Hypolipidemic effects of compound on rat plasma high density lipoprotein cholesterol (HDLC) level after peroral administration at 100 mg/kg dose (Experiment 2)
SMILES,HDL-C (Rattus norvegicus [1]) [mg/dL],TC (Rattus norvegicus [2]) [mg/dL],Liver weight (Rattus norvegicus [3]),TG (Rattus norvegicus [4]) [mg/dL],also measured
CC(C)(CCCOc1ccc(CCc2ccccc2)cc1)C(=O)O,32,282.8,53.5 mg (g of body weight)-1,92.7,–
CC(C)(CCCOc1ccc(CCCCCc2ccccc2)cc1)C(=O)O,38.1,261.9,54.1 mg (g of body weight)-1,–,Liver weight (Rattus norvegicus [5]): 40 mg (g of body weight)-1; TG (Rattus norvegicus [6]): 71.9 mg/dL
CC(C)(CCCCCCCCCCOc1ccc(CCCCc2ccccc2)cc1)C(=O)O,–,–,–,–,HDL-C (Rattus norvegicus [7]): 48.6 mg/dL; TC (Rattus norvegicus [8]): 248.6 mg/dL; Liver weight (Rattus norvegicus [9]): 57.2 mg (g of body weight)-1; TG (Rattus norvegicus [10]): 52.8 mg/dL
CC(C)(CCCCCCCOc1ccc(CCCCc2ccccc2)cc1)C(=O)O,–,–,–,–,HDL-C (Rattus norvegicus [7]): <65.2 mg/dL; TC (Rattus norvegicus [8]): <145.7 mg/dL; Liver weight (Rattus norvegicus [9]): 57.6 mg (g of body weight)-1; Liver weight (Rattus norvegicus [11]): <40.1 mg (g of body weight)-1; TG (Rattus norvegicus [10]): 43 mg/dL
CC(C)(CCCCCCCCOc1ccc(CCCCc2ccccc2)cc1)C(=O)O,–,–,–,–,HDL-C (Rattus norvegicus [7]): <53.7 mg/dL; TC (Rattus norvegicus [8]): <150 mg/dL; Liver weight (Rattus norvegicus [9]): 58.4 mg (g of body weight)-1; Liver weight (Rattus norvegicus [11]): <39.3 mg (g of body weight)-1; TG (Rattus norvegicus [10]): 47.6 mg/dL
CC(C)(CCCCCCCCCOc1ccc(CCCCc2ccccc2)cc1)C(=O)O,–,–,–,–,HDL-C (Rattus norvegicus [7]): <55 mg/dL; TC (Rattus norvegicus [8]): <173.6 mg/dL; Liver weight (Rattus norvegicus [9]): 57.5 mg (g of body weight)-1; Liver weight (Rattus norvegicus [11]): <38.2 mg (g of body weight)-1; TG (Rattus norvegicus [10]): 57.3 mg/dL
CC(C)(CCCOc1ccc(CCCCc2ccccc2)cc1)C(=O)O,35.2,258.3,54.5 mg (g of body weight)-1,76.9,–
Cc1cnc(COC(=O)C(C)(C)CCCCOc2ccc(CCCCc3ccccc3)cc2)cn1,51.7,181.5,59.6 mg (g of body weight)-1,–,Liver weight (Rattus norvegicus [12]): 38.2 mg (g of body weight)-1; TG (Rattus norvegicus [6]): 36.9 mg/dL
CC(C)(CCCOc1ccc(-c2ccccc2)cc1)C(=O)O,39.9,222.7,–,54.3,Liver weight (Rattus norvegicus [13]): 54.7 mg (g of body weight)-1
CC(C)(CCCCCOc1ccc(CCCCc2ccccc2)cc1)C(=O)O,52.4,190.6,58.3 mg (g of body weight)-1,60.4,Liver weight (Rattus norvegicus [5]): 36.7 mg (g of body weight)-1
Cc1ccc(CCCCc2ccc(OCCCCC(C)(C)C(=O)O)cc2)c(C)c1,73,173.9,–,37,Liver weight (Rattus norvegicus [14]): 62.3 mg (g of body weight)-1; Liver weight (Rattus norvegicus [12]): 41.8 mg (g of body weight)-1
CCOC(=O)C(C)(C)Oc1ccc(Cl)cc1 [CLOFIBRATE],–,–,–,–,HDL-C (Rattus norvegicus [7]): 29.4 mg/dL; TC (Rattus norvegicus [8]): <251.2 mg/dL; Liver weight (Rattus norvegicus [9]): 52.8 mg (g of body weight)-1; Liver weight (Rattus norvegicus [11]): <43.1 mg (g of body weight)-1; TG (Rattus norvegicus [10]): <51.8 mg/dL
Cc1ccc(C)c(OCCCC(C)(C)C(=O)O)c1 [GEMFIBROZIL],51.5,358.7,–,53.1,Liver weight (Rattus norvegicus [15]): 54.8 mg (g of body weight)-1; Liver weight (Rattus norvegicus [5]): 51.4 mg (g of body weight)-1
CC(C)(CCCCOc1ccc(CCCCc2ccccc2)cc1)C(=O)O,–,–,–,–,HDL-C (Rattus norvegicus [16]): 49.4 mg/dL; TC (Rattus norvegicus [17]): 159.5 mg/dL; TC (Rattus norvegicus [18]): 132.9 mg/dL; Liver weight (Rattus norvegicus [19]): 55.8 mg (g of body weight)-1; Liver weight (Rattus norvegicus [20]): 59.1 mg (g of body weight)-1; Liver weight (Rattus norvegicus [21]): 41.7 mg (g of body weight)-1; Liver weight (Rattus norvegicus [22]): 40.7 mg (g of body weight)-1; TG (Rattus norvegicus [23]): 49 mg/dL; TG (Rattus norvegicus [24]): 33.8 mg/dL; HDL-C (Rattus norvegicus [25]): 50.9 mg/dL
CC(C)(CCCOc1ccc(Cc2ccccc2)cc1)C(=O)O,29.9,284.4,–,84.7,Liver weight (Rattus norvegicus [13]): 53.2 mg (g of body weight)-1
CC(C)(Oc1ccc(CCCCc2ccccc2)cc1)C(=O)O,50.7,194.6,–,41.3,Liver weight (Rattus norvegicus [14]): 67.1 mg (g of body weight)-1; Liver weight (Rattus norvegicus [12]): 54.6 mg (g of body weight)-1
CC(C)(CCCOc1ccc(CCNC(=O)c2ccccc2)cc1)C(=O)O,42.1,204.1,–,49.4,Liver weight (Rattus norvegicus [14]): 57 mg (g of body weight)-1
CC(C)(CCCOc1ccc(CCCCCCc2ccccc2)cc1)C(=O)O,38.4,256.1,–,–,Liver weight (Rattus norvegicus [14]): 52.1 mg (g of body weight)-1; TG (Rattus norvegicus [6]): 86.2 mg/dL
Cc1cnc(C(=O)OCC(C)(C)CCCCOc2ccc(CCCCc3ccccc3)cc2)cn1,47.6,145.1,58 mg (g of body weight)-1,41,–
CC(C)(CCCOc1ccc(C(=O)c2ccccc2)cc1)C(=O)O,57.6,260.8,–,53.6,Liver weight (Rattus norvegicus [14]): 81.8 mg (g of body weight)-1
Cc1ccc(C)c(CCCCc2ccc(OCCCCC(C)(C)C(=O)O)cc2)c1,56,125.9,59.9 mg (g of body weight)-1,34.4,Liver weight (Rattus norvegicus [12]): 40 mg (g of body weight)-1
Cc1cnc(C(=O)OCC(C)(C)CCCCOc2ccc(CCCCc3ccccc3)cc2)c[n+]1[O-],–,–,–,–,HDL-C (Rattus norvegicus [7]): 45.3 mg/dL; TC (Rattus norvegicus [8]): <146.6 mg/dL; Liver weight (Rattus norvegicus [9]): 57.8 mg (g of body weight)-1; TG (Rattus norvegicus [10]): 45.8 mg/dL
CC(C)(CCCCOc1ccc(CCCCc2ccccc2)cc1)C(=O)OCc1cccnc1,59.6,154.3,58.2 mg (g of body weight)-1,43.9,Liver weight (Rattus norvegicus [12]): 38 mg (g of body weight)-1
CC(C)(CCCCCCOc1ccc(CCCCc2ccccc2)cc1)C(=O)O,58.1,150.7,60.2 mg (g of body weight)-1,48.9,Liver weight (Rattus norvegicus [12]): 42.3 mg (g of body weight)-1
CC(C)(CCCOc1ccc(CCCc2ccccc2)cc1)C(=O)O,40.6,217.5,54 mg (g of body weight)-1,–,Liver weight (Rattus norvegicus [5]): 39.1 mg (g of body weight)-1; TG (Rattus norvegicus [6]): 79.5 mg/dL
CC(C)(CCCCOc1ccc(CCCCc2ccccc2)cc1)COC(=O)c1cccnc1,49.9,152,57.8 mg (g of body weight)-1,46.7,Liver weight (Rattus norvegicus [12]): 39.7 mg (g of body weight)-1
